Among the data in ChEMBL document CHEMBL5442219 are inhibition values, retold here.

What all share (details): Compound concentration 10 µM
The target of assay [1] is T1, Alpha-2B adrenergic receptor (Homo sapiens) (UniProt P18089).
T1 sequence (whole entry): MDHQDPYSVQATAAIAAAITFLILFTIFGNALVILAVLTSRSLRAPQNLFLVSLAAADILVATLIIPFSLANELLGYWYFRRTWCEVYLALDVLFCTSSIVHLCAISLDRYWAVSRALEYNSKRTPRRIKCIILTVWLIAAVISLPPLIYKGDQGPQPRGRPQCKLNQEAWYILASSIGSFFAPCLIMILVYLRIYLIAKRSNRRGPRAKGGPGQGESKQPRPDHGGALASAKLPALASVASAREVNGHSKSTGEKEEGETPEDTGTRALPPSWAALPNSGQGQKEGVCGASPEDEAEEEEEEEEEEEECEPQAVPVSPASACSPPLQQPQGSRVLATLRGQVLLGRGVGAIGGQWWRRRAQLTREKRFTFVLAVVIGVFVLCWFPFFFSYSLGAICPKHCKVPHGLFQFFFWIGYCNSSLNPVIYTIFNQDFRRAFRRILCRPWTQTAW

The target of assay [2] is T2, Alpha-2C adrenergic receptor (Homo sapiens) (UniProt P18825).
T2 sequence (whole entry): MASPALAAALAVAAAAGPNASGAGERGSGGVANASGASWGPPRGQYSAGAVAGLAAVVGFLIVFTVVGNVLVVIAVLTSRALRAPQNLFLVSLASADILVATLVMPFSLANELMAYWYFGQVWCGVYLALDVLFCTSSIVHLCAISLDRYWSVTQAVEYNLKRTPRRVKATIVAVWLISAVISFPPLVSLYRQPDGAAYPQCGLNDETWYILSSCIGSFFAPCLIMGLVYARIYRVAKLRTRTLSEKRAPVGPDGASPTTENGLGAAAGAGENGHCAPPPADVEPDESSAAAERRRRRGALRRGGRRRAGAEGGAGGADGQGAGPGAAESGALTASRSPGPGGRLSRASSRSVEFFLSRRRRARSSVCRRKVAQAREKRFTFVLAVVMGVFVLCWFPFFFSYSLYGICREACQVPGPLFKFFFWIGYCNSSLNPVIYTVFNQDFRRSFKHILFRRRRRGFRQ

The target in assay [3] is T3, Muscarinic acetylcholine receptor M1 (Homo sapiens) (UniProt P11229).
T3 sequence (whole entry): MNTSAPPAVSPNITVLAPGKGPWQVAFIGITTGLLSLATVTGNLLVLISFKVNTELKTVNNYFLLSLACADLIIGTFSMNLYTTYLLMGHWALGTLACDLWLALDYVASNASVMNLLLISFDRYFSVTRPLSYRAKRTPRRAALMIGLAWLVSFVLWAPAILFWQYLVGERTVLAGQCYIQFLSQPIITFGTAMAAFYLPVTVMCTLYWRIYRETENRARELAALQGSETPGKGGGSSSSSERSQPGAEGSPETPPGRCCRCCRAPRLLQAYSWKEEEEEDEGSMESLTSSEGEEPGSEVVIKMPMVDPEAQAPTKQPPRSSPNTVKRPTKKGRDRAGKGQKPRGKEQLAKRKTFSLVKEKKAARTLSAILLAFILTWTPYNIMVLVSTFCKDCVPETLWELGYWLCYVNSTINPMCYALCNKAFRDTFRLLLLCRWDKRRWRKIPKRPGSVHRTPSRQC

For assay [4], the target named is T4, Muscarinic acetylcholine receptor M2 (Homo sapiens) (UniProt P08172).
T4 sequence (whole entry): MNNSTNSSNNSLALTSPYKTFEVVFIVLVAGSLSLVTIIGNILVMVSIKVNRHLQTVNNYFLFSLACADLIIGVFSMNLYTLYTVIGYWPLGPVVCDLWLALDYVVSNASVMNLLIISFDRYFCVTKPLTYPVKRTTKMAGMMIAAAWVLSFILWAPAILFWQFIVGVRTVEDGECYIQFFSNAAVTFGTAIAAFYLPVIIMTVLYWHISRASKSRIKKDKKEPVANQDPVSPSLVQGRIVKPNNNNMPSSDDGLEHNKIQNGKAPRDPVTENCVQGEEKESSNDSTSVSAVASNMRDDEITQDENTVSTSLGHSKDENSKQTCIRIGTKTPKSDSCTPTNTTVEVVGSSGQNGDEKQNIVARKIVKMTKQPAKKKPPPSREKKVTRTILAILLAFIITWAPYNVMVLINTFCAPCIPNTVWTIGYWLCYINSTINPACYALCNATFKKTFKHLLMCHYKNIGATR

In assay [5] the target is Muscarinic acetylcholine receptor M3 (Homo sapiens) (UniProt P20309).
Assay [6] has as its target D(1A) dopamine receptor (Homo sapiens) (UniProt P21728).
Assay [7] has as its target Histamine H1 receptor (Homo sapiens) (UniProt P35367).
For assay [8], the target named is 5-hydroxytryptamine receptor 1D (Homo sapiens) (UniProt P28221).
For assay [9], the target named is 5-hydroxytryptamine receptor 2B (Homo sapiens) (UniProt P41595).
The target in assay [10] is 5-hydroxytryptamine receptor 5A (Homo sapiens) (UniProt P47898).
For assay [11], the target named is Delta-type opioid receptor (Homo sapiens) (UniProt P41143).
Assay [12] concerns the target Mu-type opioid receptor (Homo sapiens) (UniProt P35372).
Assay [13] addresses Sigma non-opioid intracellular receptor 1 (Homo sapiens) (UniProt Q99720).
The target of assay [14] is Sodium-dependent dopamine transporter (Homo sapiens) (UniProt Q01959).
For assay [15], the target named is Translocator protein (Homo sapiens) (UniProt P30536).
Assay [16] deals with Histamine H4 receptor (Homo sapiens) (UniProt Q9H3N8).
Histamine H4 receptor (Homo sapiens), sequence (Q9H3N8 whole entry): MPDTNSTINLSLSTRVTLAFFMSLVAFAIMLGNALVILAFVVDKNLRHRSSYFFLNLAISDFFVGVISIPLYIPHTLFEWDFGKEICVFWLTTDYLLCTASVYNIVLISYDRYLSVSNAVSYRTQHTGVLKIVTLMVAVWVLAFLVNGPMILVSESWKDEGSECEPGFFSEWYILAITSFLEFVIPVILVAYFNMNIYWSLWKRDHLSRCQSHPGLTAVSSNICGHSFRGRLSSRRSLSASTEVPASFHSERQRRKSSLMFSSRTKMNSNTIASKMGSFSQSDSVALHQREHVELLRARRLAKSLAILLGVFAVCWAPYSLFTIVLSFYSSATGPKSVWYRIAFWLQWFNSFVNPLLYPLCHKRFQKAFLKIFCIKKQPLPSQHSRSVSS

Translocator protein (Homo sapiens), sequence (P30536 whole entry): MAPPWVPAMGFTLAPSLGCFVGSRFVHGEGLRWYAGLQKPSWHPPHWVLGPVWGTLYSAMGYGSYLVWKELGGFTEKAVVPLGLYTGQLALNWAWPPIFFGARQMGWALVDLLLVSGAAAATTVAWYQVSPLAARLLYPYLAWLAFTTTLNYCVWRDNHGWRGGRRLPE
Sigma non-opioid intracellular receptor 1 (Homo sapiens), sequence (Q99720 whole entry): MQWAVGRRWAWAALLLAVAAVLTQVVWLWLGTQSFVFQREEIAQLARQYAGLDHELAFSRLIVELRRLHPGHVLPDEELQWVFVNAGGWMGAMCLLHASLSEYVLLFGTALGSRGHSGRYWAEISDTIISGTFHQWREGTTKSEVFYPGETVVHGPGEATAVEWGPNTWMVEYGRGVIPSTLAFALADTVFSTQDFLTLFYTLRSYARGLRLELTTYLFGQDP
Histamine H1 receptor (Homo sapiens), sequence (P35367 whole entry): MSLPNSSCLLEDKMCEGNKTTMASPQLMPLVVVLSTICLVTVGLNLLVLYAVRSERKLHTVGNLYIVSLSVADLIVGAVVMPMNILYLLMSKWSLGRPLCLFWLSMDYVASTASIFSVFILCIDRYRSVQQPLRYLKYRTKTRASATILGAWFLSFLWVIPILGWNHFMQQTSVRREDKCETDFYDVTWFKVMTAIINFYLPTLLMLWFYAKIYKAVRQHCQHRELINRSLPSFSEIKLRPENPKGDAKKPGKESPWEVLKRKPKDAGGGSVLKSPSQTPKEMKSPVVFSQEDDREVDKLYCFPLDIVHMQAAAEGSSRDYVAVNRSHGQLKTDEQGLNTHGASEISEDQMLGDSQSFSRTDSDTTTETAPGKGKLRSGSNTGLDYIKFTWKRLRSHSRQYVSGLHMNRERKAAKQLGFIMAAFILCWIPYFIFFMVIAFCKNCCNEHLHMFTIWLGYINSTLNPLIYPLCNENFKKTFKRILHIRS
Delta-type opioid receptor (Homo sapiens), sequence (P41143 whole entry): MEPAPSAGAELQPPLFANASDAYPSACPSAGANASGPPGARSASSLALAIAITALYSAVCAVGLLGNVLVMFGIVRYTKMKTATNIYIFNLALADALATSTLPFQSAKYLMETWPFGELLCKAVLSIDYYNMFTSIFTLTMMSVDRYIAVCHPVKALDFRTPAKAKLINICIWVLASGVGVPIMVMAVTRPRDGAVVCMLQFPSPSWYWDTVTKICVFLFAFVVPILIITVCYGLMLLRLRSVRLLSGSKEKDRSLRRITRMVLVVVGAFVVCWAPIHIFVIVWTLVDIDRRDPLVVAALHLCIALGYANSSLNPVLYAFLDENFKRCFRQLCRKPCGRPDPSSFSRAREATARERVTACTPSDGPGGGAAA
5-hydroxytryptamine receptor 1D (Homo sapiens), sequence (P28221 whole entry): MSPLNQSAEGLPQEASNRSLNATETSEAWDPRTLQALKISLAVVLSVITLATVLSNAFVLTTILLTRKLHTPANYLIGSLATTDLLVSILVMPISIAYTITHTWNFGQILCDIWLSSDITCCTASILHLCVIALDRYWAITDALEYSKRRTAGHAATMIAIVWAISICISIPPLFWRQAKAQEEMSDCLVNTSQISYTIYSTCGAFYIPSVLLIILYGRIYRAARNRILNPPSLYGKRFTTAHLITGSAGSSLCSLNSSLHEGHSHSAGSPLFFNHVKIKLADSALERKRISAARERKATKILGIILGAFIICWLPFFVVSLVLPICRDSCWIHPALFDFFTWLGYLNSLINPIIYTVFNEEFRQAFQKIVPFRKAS
Mu-type opioid receptor (Homo sapiens), sequence (P35372 whole entry): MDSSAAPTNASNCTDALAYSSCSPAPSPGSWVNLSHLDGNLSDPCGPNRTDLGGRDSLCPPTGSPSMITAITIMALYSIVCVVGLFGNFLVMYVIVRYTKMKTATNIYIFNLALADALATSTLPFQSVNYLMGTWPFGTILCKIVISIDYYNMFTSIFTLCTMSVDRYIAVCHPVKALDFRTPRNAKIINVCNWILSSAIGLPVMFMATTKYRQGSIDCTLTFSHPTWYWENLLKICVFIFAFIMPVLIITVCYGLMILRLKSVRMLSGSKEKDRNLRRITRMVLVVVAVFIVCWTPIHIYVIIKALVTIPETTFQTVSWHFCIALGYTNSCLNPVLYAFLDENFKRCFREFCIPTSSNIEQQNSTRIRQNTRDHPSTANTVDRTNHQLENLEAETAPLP
Sodium-dependent dopamine transporter (Homo sapiens), sequence (Q01959 whole entry): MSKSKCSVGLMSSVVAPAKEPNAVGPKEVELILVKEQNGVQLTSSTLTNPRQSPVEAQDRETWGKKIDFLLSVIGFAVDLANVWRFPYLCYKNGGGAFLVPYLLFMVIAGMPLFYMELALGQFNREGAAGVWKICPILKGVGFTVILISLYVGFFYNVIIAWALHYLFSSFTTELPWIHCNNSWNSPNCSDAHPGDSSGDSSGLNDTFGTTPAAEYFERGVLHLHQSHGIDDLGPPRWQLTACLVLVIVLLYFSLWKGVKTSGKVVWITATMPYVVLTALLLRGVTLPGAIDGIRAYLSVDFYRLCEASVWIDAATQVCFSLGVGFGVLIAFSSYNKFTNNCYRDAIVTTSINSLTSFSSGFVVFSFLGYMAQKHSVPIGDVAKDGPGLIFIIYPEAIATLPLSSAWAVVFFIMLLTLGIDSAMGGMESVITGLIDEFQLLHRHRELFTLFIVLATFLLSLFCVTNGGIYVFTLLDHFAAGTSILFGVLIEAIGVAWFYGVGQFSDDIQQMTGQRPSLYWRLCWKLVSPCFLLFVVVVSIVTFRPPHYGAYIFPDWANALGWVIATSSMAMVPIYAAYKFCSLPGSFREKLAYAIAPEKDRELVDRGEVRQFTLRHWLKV
5-hydroxytryptamine receptor 5A (Homo sapiens), sequence (P47898 whole entry): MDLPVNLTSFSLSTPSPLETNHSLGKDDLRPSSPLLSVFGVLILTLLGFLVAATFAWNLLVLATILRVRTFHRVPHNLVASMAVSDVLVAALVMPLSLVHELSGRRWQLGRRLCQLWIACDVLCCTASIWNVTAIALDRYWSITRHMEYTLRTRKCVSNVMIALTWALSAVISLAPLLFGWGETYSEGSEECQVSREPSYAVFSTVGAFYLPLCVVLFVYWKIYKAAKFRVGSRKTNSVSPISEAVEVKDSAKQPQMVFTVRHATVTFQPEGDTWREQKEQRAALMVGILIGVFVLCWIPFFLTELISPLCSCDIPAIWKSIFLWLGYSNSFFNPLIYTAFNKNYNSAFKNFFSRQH
5-hydroxytryptamine receptor 2B (Homo sapiens), sequence (P41595 whole entry): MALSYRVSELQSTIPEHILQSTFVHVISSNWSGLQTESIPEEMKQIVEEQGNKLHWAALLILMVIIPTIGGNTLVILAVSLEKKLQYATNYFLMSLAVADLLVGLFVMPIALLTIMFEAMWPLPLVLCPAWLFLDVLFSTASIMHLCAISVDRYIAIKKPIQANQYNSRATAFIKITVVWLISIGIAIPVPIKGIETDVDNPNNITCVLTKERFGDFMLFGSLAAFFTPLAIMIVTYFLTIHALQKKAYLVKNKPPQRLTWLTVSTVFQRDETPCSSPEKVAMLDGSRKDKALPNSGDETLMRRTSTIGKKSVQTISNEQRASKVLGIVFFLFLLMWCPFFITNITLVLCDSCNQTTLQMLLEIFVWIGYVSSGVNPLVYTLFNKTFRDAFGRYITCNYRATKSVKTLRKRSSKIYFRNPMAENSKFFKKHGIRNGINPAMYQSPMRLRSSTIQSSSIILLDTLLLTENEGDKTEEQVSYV
D(1A) dopamine receptor (Homo sapiens), sequence (P21728 whole entry): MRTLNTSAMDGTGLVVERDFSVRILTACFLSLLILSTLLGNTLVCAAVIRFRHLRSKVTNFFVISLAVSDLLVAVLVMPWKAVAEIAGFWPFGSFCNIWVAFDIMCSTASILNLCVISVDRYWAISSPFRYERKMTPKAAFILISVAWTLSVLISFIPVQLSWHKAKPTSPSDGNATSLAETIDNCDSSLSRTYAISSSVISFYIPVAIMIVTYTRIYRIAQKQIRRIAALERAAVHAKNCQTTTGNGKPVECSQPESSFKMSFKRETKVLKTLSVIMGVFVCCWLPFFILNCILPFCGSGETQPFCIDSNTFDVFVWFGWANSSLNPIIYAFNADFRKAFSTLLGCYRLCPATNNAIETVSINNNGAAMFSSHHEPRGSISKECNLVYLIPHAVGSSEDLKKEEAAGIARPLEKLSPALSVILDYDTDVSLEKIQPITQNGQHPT
Muscarinic acetylcholine receptor M3 (Homo sapiens), sequence (P20309 whole entry, looked up): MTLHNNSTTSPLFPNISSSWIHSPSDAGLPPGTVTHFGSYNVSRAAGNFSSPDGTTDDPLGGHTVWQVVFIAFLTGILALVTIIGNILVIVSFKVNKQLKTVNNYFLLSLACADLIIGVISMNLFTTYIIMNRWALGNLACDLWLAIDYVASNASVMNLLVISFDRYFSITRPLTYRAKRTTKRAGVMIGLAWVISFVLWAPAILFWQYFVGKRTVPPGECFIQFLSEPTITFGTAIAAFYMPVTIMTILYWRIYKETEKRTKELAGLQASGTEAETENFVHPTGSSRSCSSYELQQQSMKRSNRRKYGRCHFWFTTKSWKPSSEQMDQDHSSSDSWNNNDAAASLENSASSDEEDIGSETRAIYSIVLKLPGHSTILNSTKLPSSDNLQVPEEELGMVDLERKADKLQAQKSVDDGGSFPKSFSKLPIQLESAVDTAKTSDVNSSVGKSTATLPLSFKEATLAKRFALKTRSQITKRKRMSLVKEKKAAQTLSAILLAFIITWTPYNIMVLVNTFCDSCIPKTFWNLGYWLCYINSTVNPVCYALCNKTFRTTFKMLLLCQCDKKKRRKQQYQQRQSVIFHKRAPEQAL

Regarding `CC(C)NCC(O)COc1ccc(CCOCC2CC2)cc1` (centres undefined), the inhibition in assay [1] is 24.5%; in assay [2] it was 2.92%; in assay [3], 0.88%; in assay [4] it was -4.15%; in assay [5], 1.59%; in assay [6], 1.75%. Besides, the inhibition in [7] was 1.05%; in assay [8], 5.07%; in assay [9], 32.1%; in assay [10], -3.84%; in assay [11] it was 3.69%; in assay [12], 3.09%. Also, the figures for the inhibition in assay [13], in [14] and in assay [15] were 91.7%, 27.9% and 4.48%, respectively.

For the compound `COC(=O)C1=C(C)NC(C)=C(C(=O)OCCCN2CCC(c3ccccc3)(c3ccccc3)CC2)[C@H]1c1cccc([N+](=O)[O-])c1`, the inhibition in assay [1] is 90%; in assay [2] it was 94.8%; in assay [3], 30.9%; in [4], 40.4%; in assay [5], 61.2%; in [6], 80.7%. For the same compound, the inhibition is 98.8% in [7]; 27.4% in [16]; 75.9% in assay [8]; 83.2% in assay [9]; 68.7% in assay [10]; 94.1% in [11]. The inhibition in [12] was 92%; in assay [13] it was 53.5%; in assay [14], 89.7%; in assay [15], 79.8%.

For the compound `NC[C@@H]1O[C@H](C23CC4CC(CC(C4)C2)C3)Cc2c1ccc(O)c2O`, the inhibition in [1] was 64.3%; in [2], 102%; in assay [3] it was -5.8%; in [4] it was -9.03%; in [5] it was 12.7%; in assay [6] it was 100%. For the same compound, the inhibition in assay [7] was 38.4%; in assay [16] it was -6.56%; in [8], 43.5%; in [9] it was 48.1%; in assay [10], 20.1%; in [11] it was 3.82%. Further, the inhibition in assay [13] is 48.5%; in assay [14] it was 68.4%; in assay [15] it was -5.61%.

Turning to `N#Cc1ccc2[nH]cc(CCCCN3CCN(c4ccc5oc(C(N)=O)cc5c4)CC3)c2c1`, the inhibition in assay [1] was 47.1%; in [2], 76.3%; in assay [3] it was 1.49%; in assay [4] it was -4.48%; in assay [5], 12.6%; in [6], 22.6%. In addition, the inhibition in assay [7] was 85.8%; in assay [16], 24.6%; in assay [8] it was 80%; in [9] it was 101%; in assay [10], 40.6%; in assay [11], 35.4%. The inhibition is 62.7% in [12], 99.1% in assay [13], 99.5% in assay [14] and -4.35% in assay [15].

Turning to `Cc1ccccc1C(=O)Nc1ccc(C(=O)N2CCCC(O)c3cc(Cl)ccc32)c(C)c1` (centres undefined), the inhibition is 17.5% in assay [1]; 9.34% in [2]; -6.43% in assay [3]; 2.3% in assay [4]; 17.3% in [5]; 9.57% in assay [6]. The inhibition in [7] was 70.8%; in assay [16], 3.66%; in assay [8] it was 88.5%; in assay [9], 74.7%; in [10] it was 11.7%; in assay [11], 7.13%. Besides, the inhibition in assay [12] is 53.2%; in [13], 28.2%; in assay [14], 21.9%; in assay [15] it was 35.6%.

With `Cc1nc(-c2ccc(-c3ccc(C(=O)N4CCc5cc6c(cc54)C4(CCN(C)CC4)CO6)cc3)c(C)c2)no1`, the inhibition was 69.5% in assay [1]; 38% in assay [2]; 66.4% in assay [3]; 44.5% in [4]; 73% in assay [5]; 53.5% in assay [6]. Moreover, the inhibition is 33.8% in assay [7]; 20.5% in [16]; 90.9% in assay [8]; 88.9% in assay [9]; 14% in assay [10]; -1.39% in [11]. Also, the inhibition in assay [12] is -2.77%; in [13] it was 75.2%; in [14], 70.2%; in [15], 24.4%.

On to `CCN(CC)CCCCC1CCN(CC(=O)N2c3ccccc3C(=O)Nc3cccnc32)CC1`, for which the inhibition in assay [1] is -3.71%; in assay [2], -6.76%; in [3] it was 89.1%; in [4], 81.4%; in assay [5], 88.7%; in assay [6], 102%. Moreover, the inhibition in assay [7] is -7.08%; in assay [16], 21.4%; in assay [8] it was 33.2%; in [9], 13.9%; in [11] it was 24.6%; in assay [12], 10.4%. For the same compound, the inhibition in assay [14] is 28.1%; in [15] it was -2.79%.

`O=C(Cc1ccc(Cl)c(Cl)c1)N1CCCC[C@H]1CN1CCCC1`: the inhibition in assay [1] was 34.8%; in [2] it was 24.5%; in [3] it was 9.74%; in assay [4], 12%; in assay [7] it was 23.8%; in assay [16] it was -9.98%. Also, the inhibition is 14.8% in [8]; 35.7% in assay [9]; 17.6% in assay [11]; 49.6% in [12]; 94.7% in assay [13]; 52.7% in [14]. Further, the inhibition in [15] is 8.29%.

Consider `C[C@@H](N)Cc1c[nH]cn1`, for which the inhibition is 9.47% in assay [1]; 10.9% in assay [2]; 2.87% in [3]; -5.01% in assay [4]; -7.33% in assay [5]; 14.2% in assay [6]. Also, the inhibition in assay [7] was 8.33%; in [16] it was 95.7%; in assay [8], 6.42%; in [9], 35.1%; in assay [10], -3.48%; in assay [13], 20.9%. Moreover, the inhibition in [14] was 3.36%.

In general, inhibition refers to the drop in the measured response relative to a control, in per cent.
